4 molecules from article PMC3818998 (Microbial Biotechnology, 2011) can be followed below.

Data set [1] deals with GalG (Bifidobacterium breve, UniProt F9Y1U6). In words: HPTLC of hydrolysis products. Type of data set: biochemical.
Data set [2] concerns the target T1, GalR (Bifidobacterium breve UCC2003, UniProt F9Y1U7 1-351).
T1 sequence: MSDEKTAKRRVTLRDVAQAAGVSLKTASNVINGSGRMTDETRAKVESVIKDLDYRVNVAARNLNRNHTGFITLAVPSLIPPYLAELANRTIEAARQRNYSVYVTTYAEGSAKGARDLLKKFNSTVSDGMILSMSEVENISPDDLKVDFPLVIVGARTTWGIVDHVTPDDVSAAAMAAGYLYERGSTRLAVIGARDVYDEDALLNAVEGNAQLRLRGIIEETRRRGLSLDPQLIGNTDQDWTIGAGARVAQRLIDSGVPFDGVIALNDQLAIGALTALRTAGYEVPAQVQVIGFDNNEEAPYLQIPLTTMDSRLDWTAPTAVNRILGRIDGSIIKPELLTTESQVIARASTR
The data set is described as follows: EMSA. A general note: In EMSA bound probe runs differently from free probe, usually more slowly.

Where two headings read alike, the source gives them in different places.

Take `OC[C@H]1O[C@@H](O[C@@H]2[C@H](O)[C@@H](O)[C@H](O[C@@H]3[C@H](O)[C@@H](O)C(O)O[C@@H]3CO)O[C@@H]2CO)[C@H](O)[C@@H](O)[C@H]1O` (stereo partly shown) [galactotriose]: in data set [1] (galactotriose generated in situ from potato galactan by GalA or GalAT), the “HPTLC of hydrolysis products” value is “Upon addition of GalG to the reaction mix the galactotriose is further hydrolysed”.
On to `OC[C@H]1O[C@@H](O[C@@H]2[C@H](O)[C@@H](O)C(O)O[C@@H]2CO)[C@H](O)[C@@H](O)[C@H]1O` (stereo partly shown) [galactobiose], for which, in data set [1], the “HPTLC of hydrolysis products” value is “The hydrolysis products of galactobiose and lactose following incubation with GalG”.

B1: galCIR2 (dsDNA)
DNA 1: TGACAAATTGGTACACAGGTGTATCATCTTAGGTA
DNA 2: TACCTAAGATGATACACCTGTGTACCAATTTGTCA
B1: the binding result in data set [2] was “binds”.

B2: galCIR1 (dsDNA)
DNA 1: TTAGGTATTGGTACACGGGTGTACCAAAGAAAACA
DNA 2: TGTTTTCTTTGGTACACCCGTGTACCAATACCTAA
As for B2, in data set [2], the binding result is recorded as “binds”.
